Laboratory results: patent publication US20050069587A1, “Novel drug compositions and dosage forms of topiramate” (priority 2003, published 2005)
≈ marks a conversion by molar mass, not a printed value. Read-outs that look alike come from different tables or passages of the source.

Legend:
[1] = solubility of topiramate in de-ionized water and aqueous surfactant solutions; type: physicochemical; conditions: for solubility: water, thermodynamic from solid
Protocol: As defined herein, the solubility of a pharmaceutical agent is determined by adding the pharmaceutical agent to stirred or agitated de-ionized water maintained in a constant temperature bath at a temperature of 37° C. until no more pharmaceutical agent dissolves. The resulting solution saturated with the pharmaceutical agent is then filtered, typically under pressure through a 0.8-micron Millipore filter, and the concentration of the pharmaceutical agent in the solution is measured by any appropriate analytical method including gravimetric, ultraviolet spectrophometry, chromatography, and the like. The solubility of the pharmaceutical agent is measured at equilibrium.
A drug composition of the present invention was prepared as follows. Aqueous solutions of five surfactants were prepared. The selected surfactants were four grades of ethylene oxide/propylene oxide/ethylene oxide (LUTROL grades F127, F87, F 108, and F68) and PEG-40 stearate (MYRJ 52). Solutions were made at concentrations of 1, 5, and 15 weight percent. The aqueous surfactant blends solutions were chilled as necessary to promote complete dissolution of the surfactant prior to drug solubility studies.
The aqueous surfactant solutions were equilibrated to constant temperature in a 37° C. water bath. Then, neat topiramate drug was added slowly with stirring in approximately 10 mg increments to the surfactant solutions until no more drug dissolved. A control sample of drug dissolved in de-ionized water without surfactant was included for comparison purposes. The resulting saturated solutions of drug were filtered through 0.8 micron filters and analyzed for drug concentration by refractive index chromatography. The resulting solubility values were plotted as a function of both surfactant concentration and the hydrophilic-lipophilic balance value of each surfactant. FIG. 6 was constructed from the solubility values obtained and HLB data for each surfactant utilized.

[2] = room temperature; cited from earlier work
[3] = cited from earlier work

Structure (SMILES): CC1(C)O[C@@H]2[C@@H](CO[C@@]3(COS(N)(=O)=O)OC(C)(C)O[C@@H]23)O1 [topiramate, 2,3:4,5-bis-O-(1-methylethylidene)-β-D-fructopyranose sulfamate]
- drug solubility in the presence of each surfactant compared to the control ([1]; LUTROL F127, F87, F108, F68, MYRJ 52 at 1, 5, 15 weight percent, 37° C.): higher
- solubility ([1]; de-ionized water without surfactant, 37° C., read-out: solubility in de-ionized water without surfactant (control)): 13 mg/mL (≈ 38.3 mM)
- solubility ([1]; de-ionized water, 37 °C, read-out: solubility in de-ionized water): ~12 mg/mL (≈ 35.4 mM)
- solubility ([1]; neat drug, stated range, read-out: solubility of neat topiramate): 9.8 to 13 mg/mL (≈ 28.9 to 38.3 mM)
- solubility of topiramate in water [2]: about 9.8 mg/ml
- mean elimination half life ([3]; in vivo): about 21 hours
- time to peak plasma drug concentrations ([3]; oral administration of an immediate release dosage form): approximately 2 hours
